According to patent US20250163006A1, “New Coolants, and Preparations Containing Same” (Symrise AG, priority 2022, published 2025):
Like-named read-outs stand apart in the source and are kept apart here.

Target: T1, human TRPM8 receptor (Homo sapiens, UniProt Q7Z2W7)
T1 construct: expressed in transfected cells; host or cells: HEK293, stably transfected, tetracycline-inducible expression
Test: Assay on TRPM8 modulators: Ca2+-sensitive dye (Fluo-4) fluorescence in HEK293-TRPM8 test cells
Assay type: cell-based
Parameters: relative TRPM8 activation: concentration or dose not given beside the values
Settings: for EC50: HEK293-TRPM8 cells; for relative TRPM8 activation: HEK293 cells recombinantly expressing human TRPM8
Text: The starting point for cloning the human TRPM8 receptor is an LnCaP cDNA bank. This is commercially available (e.g. BioChain, Hayward, USA) or can be produced from the andro gene-sensitive human prostate adenocarcinoma cell line LnCaP (e.g. ATCC, CRL1740 or ECACC, 891 1021 1) using standard kits.
The coding TRPM8 sequence (see e.g. http://www. ncbi.nlm.nih.gov/entrez/viewer.fcgi?db=nuccore&id=109689694) can be PCR-amplified and cloned using standard methods. The human TRPM8 gene isolated in this way was used to produce the plasmid plnd_M8. Alternatively, the TRPM8 gene can also be produced synthetically.
A stably transfected HEK293 cell line was produced as a test cell system using human TRPM8 DNA. Preference was given to HEK293, which offers the possibility of inducing TRPM8 expression using tetracycline via the plasmid introduced.
A test similar to the test already described in the literature by Behrendt H. J. et al, Br. J. Pharmacol. 141, 2004, 737-745, is performed. The agonization or antagonization of the receptor can be quantified using a Ca^2+-sensitive dye (e.g. FURA, Fluo-4 etc.). Agonists alone cause an increase in the Ca^2+ signal; antagonists cause a reduction in the Ca^2+ signal in the presence of e.g. menthol (detected in each case using the Fluo-4 dye, which has different fluorescence properties due to Ca^2+ ions).
First, a fresh culture of transformed HEK cells is prepared in cell culture flasks in the usual way. The HEK293-TRPM8 test cells are detached from the cell culture flasks using trypsin and 40,000 cells/well are seeded with 100 μl medium in 96-well plates (Greiner #655948 poly-D-lysine-coated). To induce the TRPM8 receptor, tetracycline is added to the growth medium (DMEM/HG, 10% FCS tetracycline-free, 4 mM L-glutamine, 15 μg/ml blasticidin, 100 μg/ml hygromycin B, 1 μg/ml tetracycline).
On the following day, the cells are loaded with Fluo-4AM dye and the test is performed. Proceed as follows: Addition of 100 μl/well staining solution Ca-4 kit (RB 141, Molecular Devices) to each 100 μl medium (DMEM/HG, 10% FCS tetracycline-free, 4 mM L-glutamine, 15 μg/ml blasticidin, 100 μg/ml hygromycin B, 1 μg/ml tetracycline).
Incubation in incubator, 30 minutes/37° C./5% CO2, 30 minutes/RT.
Preparation of the test substances (different concentrations in 200 μl HBSS buffer), as well as positive controls (different concentrations of menthol, icilin or lonomycin in 200 μl HBSS buffer) and negative controls (only 200 μl HBSS buffer) Addition of the test substances in quantities of 50 μl/well and measurement of the fluorescence change (e.g. in the assay device FLIPR, Molecular Devices or NovoStar, BMG) at 485 nm excitation, 520 nm emission, and evaluation of the potency of the different substances/concentrations and determination of the ECG. e.g. in the FLIPR assay device, Molecular Devices or NovoStar, BMG) at 485 nm excitation, 520 nm emission, and evaluation of the potency of the various substances/concentrations and determination of the EC50 values.
The test substances are used in triplicates in concentrations of 0.1-200 μM in the assay. Normally, the compounds are kept ready in DMSO solutions and diluted down to a maximum DMSO concentration of 2% for the assay.
The activity of the active substances in relation to activation of the TRPM8 channel is determined using the assay described. This is done in a concentration-dependent manner. For each active substance, 6 to 10 concentrations are measured as standard. A mathematical method (4-parameter or 5-parameter logistic curve fitting) can be used to determine the EC50 value as the inflection point of the sigmoidal curve from the activity values determined. These are standard biochemical methods that are familiar to experts.

[1] = TRPM8 activation, 6 to 10 concentrations, logistic curve fitting, read-out: EC50 value

T1 sequence (Q7Z2W7 whole entry): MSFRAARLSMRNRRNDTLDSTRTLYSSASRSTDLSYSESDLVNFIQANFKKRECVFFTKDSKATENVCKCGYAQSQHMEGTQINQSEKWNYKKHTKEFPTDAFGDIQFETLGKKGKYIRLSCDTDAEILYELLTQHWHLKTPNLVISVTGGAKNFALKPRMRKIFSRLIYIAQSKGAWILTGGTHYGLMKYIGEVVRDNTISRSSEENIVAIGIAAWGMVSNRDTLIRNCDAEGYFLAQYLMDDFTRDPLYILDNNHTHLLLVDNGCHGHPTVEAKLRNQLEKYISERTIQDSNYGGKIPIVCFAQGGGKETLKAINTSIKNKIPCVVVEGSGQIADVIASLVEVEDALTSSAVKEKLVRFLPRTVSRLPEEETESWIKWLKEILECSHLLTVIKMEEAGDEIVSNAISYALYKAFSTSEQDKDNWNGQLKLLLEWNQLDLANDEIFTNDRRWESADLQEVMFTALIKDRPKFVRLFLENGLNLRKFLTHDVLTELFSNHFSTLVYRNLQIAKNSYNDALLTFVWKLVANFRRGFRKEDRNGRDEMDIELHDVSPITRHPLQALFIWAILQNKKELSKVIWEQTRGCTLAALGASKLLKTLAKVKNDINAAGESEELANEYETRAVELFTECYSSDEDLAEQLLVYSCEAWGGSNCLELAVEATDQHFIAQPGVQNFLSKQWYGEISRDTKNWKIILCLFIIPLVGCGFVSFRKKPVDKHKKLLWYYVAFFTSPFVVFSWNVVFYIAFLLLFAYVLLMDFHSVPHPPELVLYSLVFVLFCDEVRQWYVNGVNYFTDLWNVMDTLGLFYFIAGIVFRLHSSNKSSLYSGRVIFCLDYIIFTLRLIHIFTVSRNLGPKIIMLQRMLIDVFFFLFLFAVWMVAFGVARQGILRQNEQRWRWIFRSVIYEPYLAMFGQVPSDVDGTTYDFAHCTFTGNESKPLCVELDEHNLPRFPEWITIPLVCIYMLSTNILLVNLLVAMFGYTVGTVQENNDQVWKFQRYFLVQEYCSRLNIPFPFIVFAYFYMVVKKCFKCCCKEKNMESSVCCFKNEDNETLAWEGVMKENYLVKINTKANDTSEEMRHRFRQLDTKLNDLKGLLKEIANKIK

| Structure (SMILES) | relative TRPM8 activation [%] | other results |
| --- | --- | --- |
| CNC(=O)C(C)Sc1nc(-c2ccccc2)c(-c2ccccc2)o1 (stereo not shown) [Compound A-01, 3-carboxy-3,5-dihydroxy-5-OXO-pentanoate;2-(4,5-diphenyloxazol-2-yl)sulfanylpropa noyl-methyl-ammonium] | – | EC50 (Table 6, read-out: TRPM8 EC50): 10 nM; EC50 (Table 8, read-out: TRPM8 EC50): 10 nM |
| CNC(=O)C(C)Sc1nc(-c2ccccc2)c(-c2ccccc2)o1 (stereo not shown) [Compound A-03, 2-(4,5-diphenyloxazol-2-yl)sulfanylpropa noyl-methyl-ammonium; chloride] | – | EC50 [1]: ≤ 1000 nM; EC50 (Table 6, read-out: TRPM8 EC50): 10 nM; EC50 (Table 8, read-out: TRPM8 EC50): 10 nM |
| O=C(CSc1nc(-c2ccccc2)c(-c2ccccc2)o1)NC1CC1 [Compound A-06, N-cyclopropyl-2-(4,5-diphenyloxazol-2-yl)sulfanyl-acetamide] | – | EC50 [1]: ≤ 1000 nM; EC50 (Table 6, read-out: TRPM8 EC50): 340 nM; EC50 (Table 8, read-out: TRPM8 EC50): 340 nM |
| CSCC(=O)N1CCCCC1c1nc(-c2ccc(C)cc2)co1 (stereo not shown) [Compound A-08, 2-methylsulfanyl-1-[2-[4-(p-tolyl)oxazol-2-yl]-1-piperidyl] ethanone] | – | EC50 [1]: ≤ 1000 nM; EC50 (Table 6, read-out: TRPM8 EC50): 110 nM; EC50 (Table 8, read-out: TRPM8 EC50): 110 nM |
| CNC(=O)CSc1nc(-c2ccccc2)c(-c2ccccc2)o1 [Compound A-15, 2-(4,5-diphenyloxazol-2-yl)sulfanyl-N-methyl-acetamide] | – | EC50 (Table 6, read-out: TRPM8 EC50): 7140 nM; EC50 (Table 8, read-out: TRPM8 EC50): 7140 nM |
| CCNC(=O)CSc1nc(-c2ccccc2)c(-c2ccccc2)o1 [Compound A-17, 2-(4,5-diphenyloxazol-2-yl)sulfanyl-N-ethyl-acetamide] | – | EC50 (Table 6, read-out: TRPM8 EC50): 5850 nM; EC50 (Table 8, read-out: TRPM8 EC50): 5850 nM |
| CC(C)NC(=O)CSc1nc(-c2ccccc2)c(-c2ccccc2)o1 [Compound A-19, 2-(4,5-diphenyloxazol-2-yl)sulfanyl-N-isopropyl-acetamide] | 75 | – |
| CSCC(=O)N1CCCCC1c1nc(-c2ccccc2)c(-c2ccccc2)o1 (stereo not shown) [Compound A-21, 1-[2-(4,5-diphenyloxazol-2-yl)-1-piperidyl]-2-methylsulfanyl-ethanone] | 70 | – |
| CN(C)CCSc1nc(-c2ccccc2)c(-c2ccccc2)o1 [Compound A-23, 2-(4,5-diphenyloxazol-2-yl)sulfanyl-N,N-dimethyl-ethanamine] | 62 | – |
| CC(=O)NCCc1nc(-c2ccccc2)c(-c2ccccc2)o1 [Compound A-24, N-[2-(4,5-diphenyloxazol-2-yl)ethyl] acetamide] | 56 | EC50 (Table 6, read-out: TRPM8 EC50): 11300 nM; EC50 (Table 8, read-out: TRPM8 EC50): 11300 nM |
| CNC(=O)C(C)Sc1nc(-c2ccc(C)cc2)c(-c2ccc(C)cc2)o1 (stereo not shown) [Compound A-25, 2-[4,5-bis (p-tolyl)oxazol-2-yl]sulfanyl-N-methyl-propanamide] | 55 | – |
| CC(CO)NC(=O)CSc1nc(-c2ccccc2)c(-c2ccccc2)o1 (stereo not shown) [Compound A-26, 2-(4,5-diphenyloxazol-2-yl)sulfanyl-N-(2-hydroxy-1-methyl-ethyl)acetamide] | 51 | – |
| CN(C(=O)CSc1nc(-c2ccccc2)c(-c2ccccc2)o1)C1CC1 [Compound A-27, N-cyclopropyl-2-(4,5-diphenyloxazol-2-yl)sulfanyl-N-methyl-acetamide] | 42 | EC50 (Table 6, read-out: TRPM8 EC50): 18000 nM; EC50 (Table 8, read-out: TRPM8 EC50): 18000 nM |
| CNC(=O)C(C)S(=O)(=O)c1nc(-c2ccccc2)c(-c2ccccc2)o1 (stereo not shown) [Compound A-28, 2-(4,5-diphenyloxazol-2-yl)sulfonyl-N-methyl-propanamide] | 40 | – |
| CCN(CC)C(=O)CSc1nc(-c2ccccc2)c(-c2ccccc2)o1 [Compound A-29, 2-(4,5-diphenyloxazol-2-yl)sulfanyl-N,N-diethyl-acetamide] | 36 | – |
| CC(Sc1nc(-c2ccccc2)c(-c2ccccc2)o1)C(=O)NC1CCCC1 (stereo not shown) [Compound A-30, N-cyclopentyl-2-(4,5-diphenyloxazol-2-yl)sulfanyl-propanamide] | 26 | – |
| O=C(CCc1nc(-c2ccccc2)c(-c2ccccc2)o1)C1CC1 [Compound A-31, 1-cyclopropyl-3-(4,5-diphenyloxazol-2-yl)propan-1-one] | 24 | – |

| Structure (SMILES) | relative TRPM8 activation [%] | other results |
| --- | --- | --- |
| CNC(=O)CCc1nc(-c2ccc(C)cc2)c(-c2ccc(C)cc2)o1 [Compound A-32, 3-[4,5-bis (p-tolyl)oxazol-2-yl]-N-methyl-propanamide] | 23 | – |
| CC(Sc1nc(-c2ccccc2)c(-c2ccccc2)o1)C(=O)NC(C)(C)C (stereo not shown) [Compound A-33, N-tert-butyl-2-(4,5-diphenyloxazol-2-yl) sulfanyl-propanamide] | 21 | – |
| CN(C)C(=O)CCc1nc(-c2ccccc2)c(-c2ccccc2)o1 [Compound A-34, 3-(4,5-diphenyloxazol-2-yl)-N,N-dimethyl-propanamide] | 16 | – |
| CNC(=O)/C=C/c1nc(-c2ccccc2)c(-c2ccccc2)o1 [Compound A-35, (E)-3-(4,5-diphenyloxazol-2-yl)-N-methyl-prop-2-enamide] | 13 | – |
| CNC(=O)CCCc1nc(-c2ccccc2)c(-c2ccccc2)o1 [Compound A-36, 4-(4,5-diphenyloxazol-2-yl)-N-methyl-butanamide] | 12 | – |
| CC(C)CNC(=O)C(C)Sc1nc(-c2ccccc2)c(-c2ccccc2)o1 (stereo not shown) [Compound A-37, 2-(4,5-diphenyloxazol-2-yl)sulfanyl-N-isobutyl-propanamide] | 7 | – |
| O=C(CSc1nc(-c2ccccc2)c(-c2ccccc2)o1)NC1CCCC1 [Compound A-38, N-cyclopentyl-2-(4,5-diphenyloxazol-2-yl)sulfanyl-acetamide] | 6 | – |
| CCC(=O)CCc1nc(-c2ccccc2)c(-c2ccccc2)o1 [Compound A-40, 1-(4,5-diphenyloxazol-2-yl)pentan-3-one] | 5 | – |
| CC1CCCCC1NC(=O)CSc1nc(-c2ccccc2)c(-c2ccccc2)o1 (stereo not shown) [Compound A-42, 2-(4,5-diphenyloxazol-2-yl)sulfanyl-N-(2-methylcyclohexyl) acetamide] | 4 | – |
| O=C(CSc1nc(-c2ccccc2)c(-c2ccccc2)o1)NC1CCC1 [Compound A-43, N-cyclobutyl-2-(4,5-diphenyloxazol-2-yl)sulfanyl-acetamide] | 3 | – |
| c1ccc(-c2nc(C3CCCCN3)oc2-c2ccccc2)cc1 (stereo not shown) [Compound A-44, 4,5-diphenyl-2-(2-piperidyl)oxazole] | 3 | – |
| CNC(=O)CCSc1ncco1 [Compound A-45, N-methyl-3-oxazol-2-ylsulfanyl-propanamide] | 2 | – |
| CC(C)C(C)NC(=O)CSc1nc(-c2ccccc2)c(-c2ccccc2)o1 (stereo not shown) [Compound A-46, N-(1,2-dimethylpropyl)-2-(4,5-diphenyloxazol-2-yl)sulfanyl-acetamide] | 2 | – |
| CNC(=O)C(C)Sc1nc(-c2ccccc2)c(-c2ccccc2)[nH]1 (stereo not shown) [Compound A-47, 2-[(4,5-diphenyl-1H-imidazol-2-yl)sulfanyl]-N-methyl-propanamide] | 2 | – |
| CCC(=O)C(C)Sc1nc(-c2ccccc2)c(-c2ccccc2)o1 (stereo not shown) [Compound A-48, 2-(4,5-diphenyloxazol-2-yl) sulfanylpentan-3-one] | 2 | – |
| CNC(=O)CCSc1nc(-c2ccccc2)c(-c2ccccc2)o1 [Compound A-49, 3-(4,5-diphenyloxazol-2-yl)sulfanyl-N-methyl-propanamide] | 2 | – |
